This note sets out measurements from publication PMC12624573, “The antigen presentation landscape of cytokine-stressed human pancreatic islets” (Cell reports, 2025).

The subject of the first assay is CD8+ T cells from PBMC. The assay is described as follows: IFN-γ ELISpot, PBMC-derived in vitro expanded CD8+ T cell lines. In kind it is cell-based, human. Also noted: key to T cell recognition by PBMC from a T1D donor: E: T cell recognition by PBMC from a T1D donor was tested and verified; see Figure 5. The settings on record: A2 Set Peptides; PBMC T cell lines; responding donors/donors tested.
Turning to AILETAPKEV [compound 129, 17], the “T1D Donor T cell response” value is on record as 0/4 and the “non-T1D Donor T cell response” value is reported as 0/2.

Turning to ALAEEVEQV [compound 87, 12], the “T1D Donor T cell response” value is reported as 0/4 and the “non-T1D Donor T cell response” value was 0/2.

For ALANHLIKV [compound 96, 13], the “T1D Donor T cell response” value was 2/4 and the “non-T1D Donor T cell response” value is given as 0/2.

With ALAPAPPQV [compound 127, 16], the “T1D Donor T cell response” value is 0/4 and the “non-T1D Donor T cell response” value is listed as 0/2.

Consider ALDGPPIKV [compound 80, 11], for which the “T1D Donor T cell response” value is given as 1/5 and the “non-T1D Donor T cell response” value is on record as 0/2.

For the sequence ALKPLAAAL [compound 138, 18], the “T1D Donor T cell response” value is given as 0/4 and the “non-T1D Donor T cell response” value is 0/2.

Consider ALLDQALSNA [compound 111, 15], for which the “T1D Donor T cell response” value is listed as 0/4 and the “non-T1D Donor T cell response” value is given as 0/2.

As to ALLDVTPKAV [compound 140, 18], the “T1D Donor T cell response” value was 0/4 and the “non-T1D Donor T cell response” value was 0/2.

Consider ALLETVNRL [compound 99, 13], for which the “T1D Donor T cell response” value is 0/5 and the “non-T1D Donor T cell response” value is 0/2.

ALMEAIHSA [compound 93, 13]: the “T1D Donor T cell response” value is 1/4 and the “non-T1D Donor T cell response” value is recorded as 0/2.

Take ALYDNVEKL [compound 89, 12]: the “T1D Donor T cell response” value is on record as 0/4 and the “non-T1D Donor T cell response” value was 0/2.

For the sequence AMFDQSQIQEF [compound 116, 15], the “T1D Donor T cell response” value was 1/4 and the “non-T1D Donor T cell response” value was 0/2.

Consider AQIALQPAL [compound 131, 17], for which the “T1D Donor T cell response” value is listed as 0/4 and the “non-T1D Donor T cell response” value is on record as 0/2.

AQLENPAAV [compound 97, 13]: the “T1D Donor T cell response” value is reported as 0/4 and the “non-T1D Donor T cell response” value is on record as 0/2.

For AQTEVIATL [compound 94], the “T1D Donor T cell response” value is on record as 0/5 and the “non-T1D Donor T cell response” value was 0/2.

For the sequence ELNPKILAL [compound 100, 13], the “T1D Donor T cell response” value was 0/4 and the “non-T1D Donor T cell response” value was 0/2.

On to FIASKGVKLV [compound 86, 12], for which the “T1D Donor T cell response” value is recorded as 0/5 and the “non-T1D Donor T cell response” value was 0/2.

Turning to FLIRESETL [compound 109, 14], the “T1D Donor T cell response” value was 1/4 and the “non-T1D Donor T cell response” value is on record as 0/2.

For FLKEPALNEA [compound 124, 16], the “T1D Donor T cell response” value is recorded as 0/4 and the “non-T1D Donor T cell response” value is given as 0/2.

Turning to GLDDIKDLKV [peptide 112, 15], the “T1D Donor T cell response” value is given as 3/4 and the “non-T1D Donor T cell response” value was 0/2.

As to GLDRLNVTV [peptide 101, 14], the “T1D Donor T cell response” value was 4/4 and the “non-T1D Donor T cell response” value was 0/2.

In the case of HLANIVERV [compound 141, 18], the “T1D Donor T cell response” value is 0/4 and the “non-T1D Donor T cell response” value is recorded as 0/2.

Take HLKALTSEL [compound 114, 15]: the “T1D Donor T cell response” value is 0/5 and the “non-T1D Donor T cell response” value is 0/2.

With HLMDQPLSV [compound 108, 14], the “T1D Donor T cell response” value is 0/4 and the “non-T1D Donor T cell response” value is reported as 0/2.

Take HLTPSPVPV [compound 121]: the “T1D Donor T cell response” value is 0/5 and the “non-T1D Donor T cell response” value was 0/2.

Regarding HQNQLLSSL [compound 143, 18], the “T1D Donor T cell response” value is reported as 0/4 and the “non-T1D Donor T cell response” value is listed as 0/2.

Turning to KLIQKNLAT [compound 130, 17], the “T1D Donor T cell response” value is recorded as 0/4 and the “non-T1D Donor T cell response” value is 0/2.

KLLDPEDVAVQL [compound 142, 18]: the “T1D Donor T cell response” value is 0/4 and the “non-T1D Donor T cell response” value is reported as 0/2.

Consider KLQELNYNL [compound 132, 17], for which the “T1D Donor T cell response” value is 0/4 and the “non-T1D Donor T cell response” value is 0/2.

Regarding KLTENLVAL [compound 92, 12], the “T1D Donor T cell response” value is 0/5 and the “non-T1D Donor T cell response” value is listed as 0/2.

As for KQFPEVIKY [compound 90, 12], the “T1D Donor T cell response” value is on record as 0/4 and the “non-T1D Donor T cell response” value is 0/2.

KQMEQISQF [compound 137, 18]: the “T1D Donor T cell response” value was 0/4 and the “non-T1D Donor T cell response” value was 0/2.

As for KVDEAVAVL [compound 83, 11], the “T1D Donor T cell response” value is given as 0/4 and the “non-T1D Donor T cell response” value was 0/2.

As to KVIEINPYL [compound 123, 16], the “T1D Donor T cell response” value is on record as 0/5 and the “non-T1D Donor T cell response” value was 0/2.

Take LIQDRVAEV [compound 106, 14]: the “T1D Donor T cell response” value is on record as 1/5 and the “non-T1D Donor T cell response” value is reported as 0/2.

Regarding LLDEEISRV [compound 84, 11], the “T1D Donor T cell response” value is given as 0/4 and the “non-T1D Donor T cell response” value is listed as 0/2.

In the case of LLDVPTAAV [compound 81, 11], the “T1D Donor T cell response” value is 1/5 and the “non-T1D Donor T cell response” value is recorded as 0/2.

In the case of LLSDTVQHL [compound 136, 17], the “T1D Donor T cell response” value is 0/4 and the “non-T1D Donor T cell response” value is 0/2.

As to LQNPDLVSL [compound 119, 16], the “T1D Donor T cell response” value was 0/4 and the “non-T1D Donor T cell response” value is listed as 0/2.

Take QLMAEKLQL [compound 115, 15]: the “T1D Donor T cell response” value is on record as 0/4 and the “non-T1D Donor T cell response” value was 0/2.

For the sequence QLSDVAEKL [compound 128, 17], the “T1D Donor T cell response” value is recorded as 0/4 and the “non-T1D Donor T cell response” value was 0/2.

As for QQQQKIIAL [compound 91, 12], the “T1D Donor T cell response” value was 0/5 and the “non-T1D Donor T cell response” value was 0/2.

Regarding RLDDLKMTV [compound 82, 11], the “T1D Donor T cell response” value was 1/5 and the “non-T1D Donor T cell response” value is reported as 0/2.

Take RLQDELVTL [compound 110, 15]: the “T1D Donor T cell response” value is reported as 0/4 and the “non-T1D Donor T cell response” value is listed as 0/2.

Take RLSDAQIYV [compound 103, 14]: the “T1D Donor T cell response” value is 0/4 and the “non-T1D Donor T cell response” value is on record as 0/2.

Turning to RLSDVQIYV [compound 102, 14], the “T1D Donor T cell response” value is given as 1/4 and the “non-T1D Donor T cell response” value is 0/2.

RLYDPTEGMVSV [compound 85, 12]: the “T1D Donor T cell response” value was 0/4 and the “non-T1D Donor T cell response” value is 0/2.

Consider RVAEVQQVL [compound 107, 14], for which the “T1D Donor T cell response” value is on record as 0/5 and the “non-T1D Donor T cell response” value is given as 0/2.

As to RVIGTLEEV [compound 125, 16], the “T1D Donor T cell response” value is 0/4 and the “non-T1D Donor T cell response” value is recorded as 0/2.

Staying with this assay, now noted: HPAP-A2 Pool Peptides; PBMC T cell lines; responding donors/donors tested.
On to ALDGPPIKV [compound 164], for which the “T1D Donor T cell response” value is on record as 0/4 and the “non-T1D Donor T cell response” value is 0/4.

In the case of ALKPLAAAL [compound 169], the “T1D Donor T cell response” value is listed as 0/4 and the “non-T1D Donor T cell response” value is recorded as 0/4.

For the sequence ALLETVNRL [compound 162], the “T1D Donor T cell response” value is 0/4 and the “non-T1D Donor T cell response” value is given as 0/4.

As for DVIEKIRYV [compound 159], the “T1D Donor T cell response” value is 0/4 and the “non-T1D Donor T cell response” value was 0/4.

On to FLIEEIERL [compound 161], for which the “T1D Donor T cell response” value was 0/4 and the “non-T1D Donor T cell response” value is recorded as 0/4.

As for FTNHFLVEL [compound 165], the “T1D Donor T cell response” value is on record as 0/4 and the “non-T1D Donor T cell response” value is reported as 0/4.

As to IIVDIFHGL [compound 170], the “T1D Donor T cell response” value is on record as 0/4 and the “non-T1D Donor T cell response” value is on record as 0/4.

Take KLLESFKI [compound 160]: the “T1D Donor T cell response” value was 0/4 and the “non-T1D Donor T cell response” value is reported as 0/4.

As for KQFPEVIKY [compound 157], the “T1D Donor T cell response” value is recorded as 0/5 and the “non-T1D Donor T cell response” value is recorded as 0/4.

Regarding KVIEINPYL [compound 166], the “T1D Donor T cell response” value is listed as 0/4 and the “non-T1D Donor T cell response” value is listed as 0/4.

On to NLKEAIETI [compound 163], for which the “T1D Donor T cell response” value was 0/4 and the “non-T1D Donor T cell response” value was 0/4.

For RVVGTLHLL [compound 168], the “T1D Donor T cell response” value is recorded as 0/4 and the “non-T1D Donor T cell response” value is 0/4.

Still in this assay, the particulars now being: MHC-I peptides; superscript E on the peptide; F = verified with C1R-A2 cells.
As for ALANHLIKV, the “T cell recognition by PBMC from a T1D donor” value (“T cell recognition by PBMC” below) is “ALANHLIKV ^ E”.

In the case of ALMEAIHSA, the “T cell recognition by PBMC” value is on record as “ALMEAIHSA ^ E”.

Take AMFDQSQIQEF: the “T cell recognition by PBMC” value is “AMFDQSQIQEF ^E, F”.

As for GLDDIKDLKV, the “T cell recognition by PBMC” value was “GLDDIKDLKV ^ E”.

Take GLDRLNVTV: the “T cell recognition by PBMC” value was “GLDRLNVTV ^ E”.

As for RLDDLKMTV, the “T cell recognition by PBMC” value was “RLDDLKMTV ^ E”.

As for RLSDVQIYV, the “T cell recognition by PBMC” value is “RLSDVQIYV ^ E”.

With RSAAVLALL, the “T cell recognition by PBMC” value is listed as “RSAAVLALL ^E,F”.

The assay is the same for the next values; noted with them: PTM and unmodified native Pool Peptides (pool PTM 1), 9-mer peptides; PBMC T cell lines; responding donors/donors tested.
As for “QADFAIEAL [compound 150, non-modified native peptide, pool PTM A2]”, the “T1D Donor T cell response” value is on record as 0/4 and the “non-T1D Donor T cell response” value is 0/3.

Still in this assay, the particulars now being: SEC (Secretory) A2 Peptides Set; PBMC T cell lines; responding donors/donors tested.
As to “GSHLVEALY [compound 172, secretory hormone eluted peptide, pool SEC A2]”, the “T1D Donor T cell response” value was 0/4.

As to “KEFIAWLV [compound 174, secretory hormone eluted peptide, pool SEC A2]”, the “T1D Donor T cell response” value is given as 0/4.

Staying with this assay, now noted: T1D donors, PBMC-derived lines (Figure 5J).
GLDDIKDLKV [peptide 112, 15]: the “Number of donors whose CD8 T cells recognized the peptide (IFN-γ ELISpot)” value is given as “three of the donors”.

Regarding GLDRLNVTV [peptide 101, 14], the “Number of donors whose CD8 T cells recognized the peptide (IFN-γ ELISpot)” value is on record as “all four donors”.
